Data published in ChEMBL document CHEMBL2074371, “The dietary polyphenol ellagic acid is a potent inhibitor of hOAT1” (Drug Metab Dispos, 2005).

Experiments:
[1] = target: T1, Solute carrier family 22 member 11 (Homo sapiens, UniProt Q9NSA0); assay: TP_TRANSPORTER: inhibition of p-aminohippurate uptake (p-aminohippurate / 10uM) by ellagic acid at a concentration of 35uM in Xenopus laevis oocytes; format: functional, cell-based; design: scale not given: the % may be the effect or the level left; conditions: oocyte
T1 sequence (Q9NSA0 whole entry): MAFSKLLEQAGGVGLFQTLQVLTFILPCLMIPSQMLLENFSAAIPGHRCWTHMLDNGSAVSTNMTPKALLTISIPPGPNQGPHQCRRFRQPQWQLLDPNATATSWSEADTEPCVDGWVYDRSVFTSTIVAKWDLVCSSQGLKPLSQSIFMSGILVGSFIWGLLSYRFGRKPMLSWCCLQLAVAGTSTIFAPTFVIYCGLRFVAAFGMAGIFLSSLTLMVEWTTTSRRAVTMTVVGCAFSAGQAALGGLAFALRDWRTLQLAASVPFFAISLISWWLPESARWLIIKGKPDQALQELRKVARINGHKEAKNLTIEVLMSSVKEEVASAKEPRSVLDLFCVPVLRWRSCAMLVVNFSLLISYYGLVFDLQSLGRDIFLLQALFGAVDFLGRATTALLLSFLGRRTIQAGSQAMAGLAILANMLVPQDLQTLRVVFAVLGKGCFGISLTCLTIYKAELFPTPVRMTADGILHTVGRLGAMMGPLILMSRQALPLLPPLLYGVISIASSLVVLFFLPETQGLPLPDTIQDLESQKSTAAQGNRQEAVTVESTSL

[2] = target: T1, Solute carrier family 22 member 11; assay: (§1) TP_TRANSPORTER: uptake in Xenopus laevis oocytes; format: functional, cell-based; conditions: oocyte
[3] = target: T2, Solute carrier family 22 member 6 (Homo sapiens, UniProt Q4U2R8); assay: as §1; format: functional, cell-based; conditions: oocyte
T2 sequence (Q4U2R8 whole entry): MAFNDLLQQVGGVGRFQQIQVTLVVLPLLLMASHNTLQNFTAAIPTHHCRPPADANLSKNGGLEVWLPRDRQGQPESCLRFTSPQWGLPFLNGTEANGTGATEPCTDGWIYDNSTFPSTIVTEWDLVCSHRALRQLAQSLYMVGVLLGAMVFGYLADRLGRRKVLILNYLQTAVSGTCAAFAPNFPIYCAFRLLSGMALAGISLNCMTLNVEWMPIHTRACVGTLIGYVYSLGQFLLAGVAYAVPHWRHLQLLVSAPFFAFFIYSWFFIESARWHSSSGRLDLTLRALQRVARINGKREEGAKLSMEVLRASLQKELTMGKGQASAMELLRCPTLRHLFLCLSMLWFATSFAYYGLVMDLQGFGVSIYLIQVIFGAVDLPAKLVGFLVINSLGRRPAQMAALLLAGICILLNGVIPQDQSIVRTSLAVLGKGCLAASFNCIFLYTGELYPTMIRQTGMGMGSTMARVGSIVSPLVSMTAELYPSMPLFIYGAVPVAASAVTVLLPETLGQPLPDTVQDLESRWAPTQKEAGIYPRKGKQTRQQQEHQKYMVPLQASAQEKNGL

[4] = target: T2, Solute carrier family 22 member 6; assay: TP_TRANSPORTER: inhibition of ochratoxin A uptake (ochratoxin A / 1uM) in Xenopus laevis oocytes; format: functional, cell-based, Oocyte

**Q.** `O=c1oc2c(O)c(O)cc3c(=O)oc4c(O)c(O)cc1c4c23` [ELLAGIC ACID] was tested. Which Activity [1] did it give?
**A.** 35%

**Q.** What about the Activity [2] of the same molecule?
**A.** substrate [+]

**Q.** What about the Activity [3] of the same molecule?
**A.** substrate [+]

**Q.** And the IC50 [4]?
**A.** 0.27 µM
